Measurements taken from patent publication US5166379A, “Synthesis of compounds with biological activity, and methods of use” (Harbor Branch Oceanographic Institution, Inc., priority 1990, dated 1992).
In brackets after ≈: the same amount, converted by molar mass. Several values for one entry are separate records, joined by “and”; a condition that tells them apart may be missing. Identical values can stand only once. Like-named read-outs stand apart in the source and are kept apart here.

Tests used:
[1] = Lymphocyte Viability Assay (LCV); format: cell-based, murine; conditions: mouse, splenocytes, read-out: % LCV (percentage of positive control)
Experimental: (§1) II. Lymphocyte Viability Assay
(§2) 1. Compounds were similarly tested in parallel with the MLR to determine their toxic effects on lymphoid cells using the lymphocyte viability assay (LCV).
(§3) 2. Serial, log10 dilutions of the pure compound were made in absolute ethanol, and 10 μl of each dilution was added to wells of microtiter test plates, and allowed to dry.
(§4) 3. Murine splenocyte suspensions were prepared from BALB/c mice. […] The cell concentrations were adjusted to 2.5×10^6 cells/ml.
(§5) 4. A volume of 0.2 ml of the splenocyte suspension was added to replicate test wells. Positive control wells received splenocyte suspensions in the absence of the test compounds.
(§6) 5. Plates were incubated at 37° C. for 86 hours. At the end of the incubation period, a volume of 75 μl of a 2.0 mg/ml solution of MTT was added to each well, and the plates were returned to the incubator for an additional 5 hours.
(§7) 6. The supernatants from each microwell were then removed, and a volume of 200 μl of isopropanol was added and the contents mixed.
(§8) 7. Values were obtained by comparing the optical densities (determined at 570 and 650 nm) of wells containing the test compounds with those of wells containing cells and medium only (positive control). The results are expressed as a percentage of the positive control.
(§9) 8. Replicate counts were averaged, and the data reported as a percentage of the positive control. An LCV value of less than 60% of the positive control is an indication of cytotoxicity of the test compounds for lymphoid cells.

P388 cells = experiment: Antiproliferative effects against P388 cells (antitumor, MTT); format: cell-based; conditions: Mus musculus, P388, 48 hour exposure
Experimental: IV. Antitumor Methodology
To assess the antiproliferative effects against P388 cells, 200 μl cultures (96-well tissue culture plates, Nunc, Denmark) were established at 1×10^5 cells/ml in drug-free medium or medium containing the pure compounds/crude extracts at a final dilution or 1:500 and at various concentrations. Solvent for all dilutions was methanol, which was removed from plates under vacuum. All experimental cultures were initiated in media containing Gentamicin sulfate (50 μg/ml; Schering Corporation, Kenilworth, NJ).
To quantitate the effects of pure compounds/crude extracts on cell proliferation, 75 μl of warm growth medium containing 5 mg/ml MTT was added to each well, cultures were returned to the incubator, and were left undisturbed for 90 minutes. To spectrophotometrically quantitate formation of reduced formazan, plates were centrifuged (900×g, 5 minutes), culture fluids removed by aspiration, and 200 μl of acidified isopropanol (2 ml concentrated HCl/liter isopropanol) added per well. The absorbance of the resulting solutions were measured at 570 nm with a plate reader (MR700 Microplate Reader, Dynatech Laboratories, Chantilly, VA).

[2] = system: murine splenocyte suspensions (BALB/c and C57BL/6J mice); experiment: Mixed Lymphocyte Reaction (MLR); format: cell-based
Experimental: I. Mixed Lymphocyte Reaction
1. Murine splenocyte suspensions were prepared separately from BALB/c and C57BL/6J mice. […] The cell concentrations were adjusted to 2.5×10^6 cells/ml. Aliquots of each cell population were removed to separate tubes, and the remaining two cell suspensions combined to one tube.
as §3
3. A volume of 0.2 ml of the combined splenocyte suspensions was added to triplicate test wells. Positive control wells received combined splenocyte suspensions in the absence of the test compounds. Negative control wells consisted of separate (not mixed) splenocyte suspensions cultured in the absence of the test compounds.
4. Plates were incubated in 5% CO2 at 37° C. for 86 hours.
5. A volume of 0.05 ml of ^3 H-thymidine (20 μCi/ml) was added to each well, and the plates were incubated in 5% CO2 at 37° C. for an additional 5 hours.
6. The contents of each well of the microtiter plates were harvested onto glass fiber filter strips, and the resulting filter discs placed in scintillation vials to which 2.0 ml of scintillation fluid was added.
7. The amount of incorporated ^3 H-thymidine was determined by counting the vials in a liquid scintillation counter.
8. Triplicate counts were averaged, and the data reported as a percentage of the positive control.

[3] = system: lymphoid cells (murine BALB/c splenocytes); experiment: Lymphocyte Viability Assay (LCV); format: cell-based
Experimental: as §1, §2, §3, §4, §5, §6, §7, §8, §9

[4] = system: graft vs host reaction in CB6F1 mice grafted with BALB/c splenocytes; experiment: Graft vs. Host (GVHR) in vivo activity
Experimental: III. Graft vs. Host (GVHR) In Vivo Activity
1. Donor mice (BALB/c) were sacrificed, spleens removed, and spleen cell suspensions prepared in tissue culture medium.
2. The above splenocyte suspension was adjusted to 10.0×10^7 cells/ml.
3. Mice were treated with varying dosages of the test compound. […] Treatment consisted of intraperitoneal injections, daily for 7 days. Dosages were calculated on a mg per kg body weight basis.
4. On day 1 of the first treatment regimen, recipient mice (CB6) were injected intraperitoneally with 0.50 ml (50.0×10^6) of the donor (BALB/c) splenocyte suspension.
5. Controls consisted of the following:
POS--mice receiving BALB/c splenocytes (Positive Control)
SYN--mice receiving CB6 splenocytes (Syngeneic Control)
CYP--mice receiving Cyclophosphamide (100 mg/kg) and BALB/c splenocytes
6. At the end of five days, recipient mice were sacrificed, weighed, and spleens removed and weighed.
7. A spleen index of 1.0 was assigned to the mean spleen weights (adjusted to body weight) of the SYN controls. The spleen index of treated mice was determined by comparing the spleen weights of those mice with that of the […]. […] As a general rule, a spleen index of less than the positive control is indicative of an immunosuppressive (ID) compound.
^a CB6F1 mice (5 mice per group) were grafted with 5 ×
10^7 BALB/c spelnocytes, i.p. on Day 0. Groups were injected, ii.p.,
with drug (or vehicle) on Days 1-6. Positive designates grafted mice
receiving vehicle alone.
^b Number of surviving mice at end of experiment.
(Stimulation Index of Syngeneic group (CB6F1 ->CB6F1) = 100

[5] = Mus musculus, Splenocyte, 0.05 μg/ml, read-out: % MLR (percentage of positive control)
[6] = Mus musculus, Splenocyte, 50 μg/ml, read-out: % MLR (percentage of positive control)
[7] = Mus musculus, Splenocyte, 0.5 μg/ml, read-out: % MLR (percentage of positive control)
[8] = Mus musculus, Splenocyte, 5.0 μg/ml, read-out: % MLR (percentage of positive control)

Row | Compound | viability ([1]; 0.05 μg/ml) | viability ([1]; 50 μg/ml) | activity at 0.05 µg/mL [2, 5] | activity at 50 µg/mL [2, 6] | viability ([1]; 0.5 μg/ml) | viability ([1]; 5.0 μg/ml) | activity at 0.5 µg/mL [2, 7] | activity at 5 µg/mL [2, 8] | also measured
1 | C#CC(/C=C/CCCCCCCCCCCCCCC)OC(C)=O (centres unmarked) [CH3 (CH2)14 CH=CH--CHOAc--C≡CH] | 58% | 11% | 73% | 0% | – | – | – | – | viability ([1]; 0.2 μg/ml): 53%; viability ([1]; 0.8 μg/ml): 30%; viability ([1]; 3.1 μg/ml): 30%; viability ([1]; 12.5 μg/ml): 23%; IC50 (P388 cells): 100 µg/mL (≈ 299 µM); activity at 0.2 µg/mL ([2]; Mus musculus, Splenocyte, 0.2 μg/ml, read-out: % MLR (percentage of positive control)): 0%; activity at 0.8 µg/mL ([2]; Mus musculus, Splenocyte, 0.8 μg/ml, read-out: % MLR (percentage of positive control)): 0%; activity at 3.1 µg/mL ([2]; Mus musculus, Splenocyte, 3.1 μg/ml, read-out: % MLR (percentage of positive control)): 0%; activity at 12.5 µg/mL ([2]; Mus musculus, Splenocyte, 12.5 μg/ml, read-out: % MLR (percentage of positive control)): 0%
2 | C#CC(O)C=CCCCCCCCCCCCCCCCC (centres unmarked) [CH3 (CH2)15 CH=CHCOHC≡CH] | – | – | – | – | – | – | – | – | % LCV (percentage of positive control) ([3]; 0.05 μg/ml): 78%; % LCV (percentage of positive control) ([3]; 0.5 μg/ml): 78%; % LCV (percentage of positive control) ([3]; 5.0 μg/ml): 17%; % LCV (percentage of positive control) ([3]; 50 μg/ml): 13%; % MLR (percentage of positive control) ([2]; 0.05 μg/ml): 13%; % MLR (percentage of positive control) ([2]; 0.5 μg/ml): 0%; % MLR (percentage of positive control) ([2]; 5.0 μg/ml): 0%; % MLR (percentage of positive control) ([2]; 50 μg/ml): 0%
3 | O=P1(N(CCCl)CCCl)NCCCO1 (centres unmarked) [Cyclophosphamide, reference compound] | – | – | – | – | – | – | – | – | % Suppression ([4]; 100 mg/kg, i.p.): 160% and 142% and 132%; # Mice (number of surviving mice at end of experiment) ([4]; 100 mg/kg, i.p., 5 mice per group): 5 mice; suppression of the GVHR (splenomegaly response), in words ([4]; mouse, in vivo): displayed the characteristic suppression of the splenomegaly response
4 | C#CC(O)C=CC=CCCCC (centres unmarked) [CH3 (CH2)3 CH=CH--CH=CH--CHOHC≡CH] | 103% | 29% | 134% | 0% | 72% | 14% | 0% | 0% | –
5 | C#CC(=O)CCCCCCCCCCCCCCCC [CH3 (CH2)15 COC≡CH] | 91% | 34% | 114% | 0% | 89% | 47% | 7% | 0% | –
6 | C#CC(O)CCCCCCC (centres unmarked) [CH3 (CH2)6 CHOHC≡CH] | 72% | 61% | 117% | 108% | 85% | 70% | 130% | 131% | –
7 | C=CC(O)CCCCCCCCCCCCCCCC (centres unmarked) [CH3 (CH2)15 CHOHCH=CH2] | 80% | 5% | 99% | 0% | 80% | 2% | 74% | 0% | –
8 | C#CC(O)CCC=CCCCCC (centres unmarked) [CH3 (CH2)4 CH=CHCH2 CH2 CHOHC≡CH] | 65% | 51% | 137% | 50% | 57% | 45% | 122% | 110% | % Suppression ([4]; 50.0 mg/kg, i.p.): 35%; Stim. Index (spleen index) ([4]; 50.0 mg/kg, i.p.): 2.09; % Suppression ([4]; 100 mg/kg, i.p.): 59%; Stim. Index (spleen index) ([4]; 100 mg/kg, i.p.): 1.69; % Suppression ([4]; 150.0 mg/kg, i.p.): 28%; Stim. Index (spleen index) ([4]; 150.0 mg/kg, i.p.): 2.21; % Suppression ([4]; 200 mg/kg, i.p.): 57%; Stim. Index (spleen index) ([4]; 200 mg/kg, i.p.): 1.72; suppression of the GVHR (splenomegaly response), in words ([4]; mouse, in vivo): demonstrated suppressive activity in the GVHR at all dosages tested; toxicity as measured by survival of treated recipients, in words ([4]; mouse, in vivo): no associated toxicity as measured by survival of treated recipients
9 | C#CC(O)CCCCCCCCCCCCCCCC (centres unmarked) [CH3 (CH2)15 CHOHC≡CH] | 49% | 22% | 0% | 0% | 22% | 24% | 0% | 0% | viability ([1]; 0.005 μg/ml): 65%; % Suppression ([4]; 50.0 mg/kg, i.p.): 49%; % Suppression ([4]; 100 mg/kg, i.p.): 0%; % Suppression ([4]; 150.0 mg/kg, i.p.): 4%; % Suppression ([4]; 200 mg/kg, i.p.): 0%; activity at 0.005 µg/mL ([2]; Mus musculus, Splenocyte, 0.005 μg/ml, read-out: % MLR (percentage of positive control)): 0%
10 | CCCCCC=CC(O)C#CCCCCCCCC (centres unmarked) [CH3 (CH2)4 CH=CH--CHOH--C≡C--(CH2)7 CH3] | – | – | – | – | – | – | – | – | % LCV (percentage of positive control) ([3]; 0.05 μg/ml): 128%; % LCV (percentage of positive control) ([3]; 0.2 μg/ml): 119%; % LCV (percentage of positive control) ([3]; 0.8 μg/ml): 105%; % LCV (percentage of positive control) ([3]; 3.1 μg/ml): 86%; % LCV (percentage of positive control) ([3]; 12.5 μg/ml): 28%; % LCV (percentage of positive control) ([3]; 50 μg/ml): 14%; % MLR (percentage of positive control) ([2]; 0.05 μg/ml): 127%; % MLR (percentage of positive control) ([2]; 0.2 μg/ml): 135%; % MLR (percentage of positive control) ([2]; 0.8 μg/ml): 122%; % MLR (percentage of positive control) ([2]; 3.1 μg/ml): 64%; % MLR (percentage of positive control) ([2]; 12.5 μg/ml): 0%; % MLR (percentage of positive control) ([2]; 50 μg/ml): 0%
11 | C#CC(O)CCCCCCCCCCCCCCC (centres unmarked) [CH3 (CH2)14 CHOHC≡CH] | 105% | 10% | 100% | 0% | 47% | 36% | 0% | 0% | –
12 | C#CC(O)CCCC (centres unmarked) [CH3 (CH2)3 CHOHC≡CH] | 117% | 61% | 89% | 0% | 116% | 0% | 136% | 47% | –
